Laboratory results reported in paper PMC10550954, “A high throughput screen for pharmacological inhibitors of the carbohydrate response element” (Scientific Data, 2023).
pIC50: −log10 of the molar value.

Experiments:
[1] = Cytotoxicity screening (CellTiterGlo cell viability) in INS-1E ChoRE-LUC cells; type: cell-based; settings: rat, 24 h treatment
Procedure: INS-1E ChoRE-LUC cells were plated in a white 384-well plate (5000 cells in 50 µL assay medium per well) and incubated for 24 h. 100 nL of DMSO stock concentrations of compound were transferred to each well using a Bravo instrument (Agilent) affixed with a pintool head (V&P Scientific). Cells were incubated for 24 h before 30 µL of CellTiterGlo Cell Viability Assay solution (diluted 1:6 in water, Promega) was added to each well and luminescence signal values were recorded with an Envision plate reader.
(§1) Reporter activity and cell viability data was normalized to the DMSO control wells in each plate. Ten or twelve dose-response points and three biological replicates were used to determine dose-response curves using the four-parameter inhibitor dose-response curve fitting function in Prism software (Graphpad). All graphed data are plotted as the mean and the s.e.m denoted with error bars.

[2] = system: ChoRE-LUC (ChoRE driven transcription); assay: ChoRE-LUC luciferase reporter assay in INS-1E ChoRE-LUC cells (BrightGlo, 24 h, 25 mM glucose); type: cell-based, Rat; settings: 24 h treatment, 25 mM glucose media, 2% FBS
Procedure: For ReFRAME library screening, 10 nL of 2 mM DMSO stock concentrations of compound were prespotted into 5 µL of assay medium (RPMI with 2% FBS, 10 mM HEPES, 1 mM sodium pyruvate, 25 mM D-glucose (Sigma), and 1% penicillin/streptomcycin) in white 384-well plates (Grenier) using an Echo Acoustic Liquid Handler instrument (Labcyte) before the addition of INS-1E ChoRE-LUC cells (5000 cells in 45 µL assay medium per well). Cells were incubated for 24 h before 30 µL of BrightGlo Luciferase Assay solution (diluted 1:3 in water, Promega) was added to each well and luminescence signal values were recorded with an Envision plate reader (PerkinElmer). This protocol was used as the ReFRAME library was supplied from off-site and necessitated pre-spotting for efficient transfer of materials. For the screening of all other libraries, which was performed in-house, INS-1E ChoRE-LUC cells were plated in a white 384-well plate (5000 cells in 50 µL assay medium per well) and incubated for 24 h. 100 nL of DMSO stock concentrations of compound were transferred to each well using a Bravo instrument with a pintool head (Agilent). Cells were incubated for 24 h before 30 µL of BrightGlo Luciferase Assay solution was added to each well and luminescence signal values were recorded with an Envision plate reader.
as §1
To establish a reliable assay with a suitable dynamic range for high-throughput screening, we first optimized the composition of the DNA regulatory sequences within the ChoRE-LUC reporter. […] To determine whether this combination of regulatory elements was robust enough to test general ChoRE activity, we constructed six pGL4-based luciferase reporter plasmids with different numbers and/or combinations of ChoRE and FOXO sequences from the promoter of the human TXNIP gene (Fig. 3a). The wild-type (WT) sequence represents the intact minimal promoter of the TXNIP gene (GRCh38.p14, chr1:145,996,639–145,996,759). The six plasmids were transiently transfected into INS-1E cells using cationic lipid-based transfection reagents and the induction of luciferase after 24 h in 25 mM glucose containing media was compared (Fig. 3b). In addition, we tested various glucose concentrations in the assay media to determine the concentration that results in the highest stimulation. […] The WT ChoRE-LUC construct was then used to generate an INS-1E stable cell line (INS-1E ChoRE-LUC) for screening in 384-well plate format. For high-throughput screening, the treatment time, serum percentage in media, and cell count per well were optimized further. The final assay design consisted of 5,000 INS-1E ChoRE-LUC cells per well of a 384-well plate in 25 mM glucose media supplemented with 2% FBS and a compound treatment time of 24 h.

TXNIP expression = system: TXNIP expression; design: method as in PMID 28502980; settings: compared with the ChoRE-LUC IC50 of this paper; read-out: previously reported measurement (IC50); cited from earlier work
[3] = Rattus norvegicus, INS-1E, 24 h

| SMILES | IC50 at 24 h [1] [µM] | pIC50 [2, 3] | pIC50 (TXNIP expression) | pIC50 [2] |
| --- | --- | --- | --- | --- |
| FC(F)(F)c1ccc(CN2CCC(F)(c3noc(-c4ccncc4)n3)C2)cc1 (stereo not shown) [SC41-0173] | > 20 | 5.08 | – | – |
| O=C(NCc1ccco1)C(=Cc1ccc(Cl)c(Cl)c1)C(=O)NCc1ccco1 [Y070-0096] | 3.98 | 5.86 | – | – |
| Fc1cc(Br)ccc1CN1CCC(F)(c2noc(-c3ccncc3)n2)C1 (stereo not shown) [SC41-0178] | > 20 | 5.01 | – | – |
| CC[C@H](Nc1nc(NCc2cnc(C)cc2C)c2ncn(C(C)C)c2n1)[C@@H](C)O [CYC065, reference compound] | 0.85 | 6.24 | – | – |
| Cc1cc(C)cc(C(=O)N2CC3(CC(CCOCc4cccc(F)c4)CO3)C2)c1 (stereo not shown) [SD60-0149] | > 20 | 4.97 | – | – |
| CC(=O)c1ccc(OCCn2cnc3c(N)ncnc32)cc1 [W2476, reference compound] | – | – | 5.77 | 5.88 |
| CCS(=O)(=O)Oc1ccc(CN(Cc2ccc(F)cc2)C(=O)/C=C/c2ccccc2)cc1 [V029-2992] | > 20 | 5.55 | – | 5.54 |
| O=C(c1ccc(F)c(Cl)c1)N1CC2(CC(CCOCc3cccc(F)c3)CO2)C1 (stereo not shown) [SD60-0151] | > 20 | 5.02 | – | – |
| CCOC(=O)c1[nH]c2ccccc2c1NC(=O)/C=C/c1ccc(OC)c(OC)c1 [C175-0061] | > 20 | 5.95 | – | – |
